# Data from patent publication US6812229B1, “Carbamate derivative and agricultural/horticultural fungicide” (Kumiai Chemical Industry Co., Ltd., priority 1999, dated 2004).
# How the values were obtained:
# Erysiphe graminis = assay: Test for preventive effect on wheat powdery mildew; format: in vivo; details: wheat seedlings (Norin-61-go), two-leaf stage, 500 ppm active ingredient, wettable powder, total diseased area of first leaves 10 days after inoculation
# Protocol: 10 Wheat seeds (variety: Norin-61-go) were sown in each plastic pot having a diameter of 6 cm, and grown in a greenhouse. Wheat seedlings which reached a two-leaf stage were treated with 10 ml per pot of aqueous solutions of wettable powders prepared in accordance with Formulation Example 2, at a concentration of 500 ppm in terms of the active ingredients, and dried in the air. Then, the seedlings were inoculated with Erysiphe graminis spore and controlled in a greenhouse. 10 Days after the inoculation, the total diseased area of the first leaves in each pot was observed and evaluated on the basis of the standards shown in Table 21.
# Septoria nodorum = assay: Test for preventive effect on Septoria leaf blotch of wheat; format: in vivo; details: wheat seedlings (Norin-61-go), two-leaf stage, 50 ppm active ingredient, 10 ml per pot, evaluated 10 days after inoculation with Septoria nodorum
# Description: [table] 10 Wheat seeds (variety: Norin-61-go) were sown in each plastic pot having a diameter of 6 cm, and grown in a greenhouse. […] Then, the seedlings were inoculated with Septoria nodorum […] controlled in a greenhouse. 10 Days after the inoculation, the total diseased area of the first leaves in each pot was observed and evaluated on the basis of the standards shown in Table 21.
# Botrytis cinerea = assay: Test for preventive effect on cucumber gray mold; format: in vivo; details: cucumber seedlings (Sagami-hanziro), cotyledon stage, 500 ppm active ingredient, 10 ml per pot, evaluated 3 days after inoculation with Botrytis cinerea, 22° C moist chamber
# Protocol: 4 cucumber seeds (variety: Sagami-hanziro) were sown in each plastic pot having a diameter of 6 cm and grown in a greenhouse. Cucumber young seedlings which reached a cotyledon stage were treated with 10 ml per pot of aqueous solutions of wettable powders prepared in accordance with Formulation Example 2, at a concentration of 500 ppm in terms of the active ingredients and dried in the air. Then, the seedlings were inoculated with Botrytis cinerea spore by putting a paper disc soaked with the spore suspension on the surface of the cucumber cotyledons, and the seedlings were immediately placed in a moist chamber of 22° C. 3 Days after the inoculation, the total diseased area of the cotyledons in each pot was observed and evaluated on the basis of the standards shown in Table 24.
compound,measurement,setting,value
COC(=O)NCc1cc(C(C)=NOCc2ccc(C(C)(C)C)cc2)ccc1Cl [A-98],Evaluation,Erysiphe graminis,A (No diseased area)
same,Evaluation (total diseased area of the first leaves),Septoria nodorum,A (No diseased area)
COC(=O)NCc1cc(C(C)=NOCC(=O)OC(C)(C)C)ccc1Cl [A-64],Evaluation,Erysiphe graminis,B (Diseased area of less than 5%)
same,Evaluation (total diseased area of the first leaves),Septoria nodorum,A (No diseased area)
COC(=O)NCc1cc(C(C)=NOCCCc2ccccc2)ccc1Cl [A-62],Evaluation,Erysiphe graminis,A (No diseased area)
same,Evaluation (total diseased area of the first leaves),Septoria nodorum,B (Diseased area of less than 5%)
CON=C(c1ccccc1)c1cccc(CNC(=O)OC)c1 [A-42],Evaluation,Erysiphe graminis,A (No diseased area)
"CON=C(C#N)c1ccc(Cl)c(CNC(=O)OC)c1 [A-3, 2-[4-chloro-3-(methoxycarbonylaminomethyl)phenyl]-2-methoxyiminoacetonitrile]",Evaluation,Erysiphe graminis,A (No diseased area)
same,Evaluation (total diseased area of the first leaves),Septoria nodorum,B (Diseased area of less than 5%)
same,melting point,,104 to 107 °C
CCCON=C(C)c1ccc(Cl)c(CNC(=O)OC)c1 [A-50],Evaluation,Erysiphe graminis,A (No diseased area)
"COC(=O)NCc1cc(C(C)=NOCc2ccc(F)cc2)ccc1Cl [A-83, Methyl N-{2-chloro-5-[1-(4-fluorobenzyloxyimino)ethyl]benzyl}carbamate]",Evaluation,Erysiphe graminis,A (No diseased area)
same,Evaluation (total diseased area of the first leaves),Septoria nodorum,A (No diseased area)
same,melting point,,101 to 103 °C
COC(=O)NCc1cc(C(C)=NOCc2ccccc2Br)ccc1Cl [A-87],Evaluation,Erysiphe graminis,A (No diseased area)
same,Evaluation (total diseased area of the first leaves),Septoria nodorum,B (Diseased area of less than 5%)
COC(=O)NCc1cc(C(C)=NOCc2cccc(C(F)(F)F)c2)ccc1Cl [A-100],Evaluation,Erysiphe graminis,A (No diseased area)
C=CCON=C(C)c1cccc(CNC(=O)OC)c1 [A-37],Evaluation,Erysiphe graminis,A (No diseased area)
COC(=O)NCc1cc(C=NOCc2ccccc2)ccc1C [A-112],Evaluation,Erysiphe graminis,A (No diseased area)
same,Evaluation (total diseased area of the first leaves),Septoria nodorum,B (Diseased area of less than 5%)
COC(=O)NCc1cc(C(C)=NOCc2ccc(Br)cc2)ccc1Cl [A-89],Evaluation,Erysiphe graminis,A (No diseased area)
same,Evaluation (total diseased area of the first leaves),Septoria nodorum,B (Diseased area of less than 5%)
"COC(=O)NCc1cc(C(C)=NOCc2cccc(C)n2)ccc1C [A-434, Methyl N-{2-methyl-5-[1-(6-methylpyridin-2-ylmethoxy)iminoethyl]benzyl}carbamate]",melting point,,72 to 75 °C
COC(=O)NCc1cc(C(C)=NOCc2cccc(Br)c2)ccc1Cl [A-88],Evaluation,Erysiphe graminis,A (No diseased area)
same,Evaluation (total diseased area of the first leaves),Septoria nodorum,B (Diseased area of less than 5%)
CON=C(C)c1ccc(Cl)c(CNC(=O)OC)c1 [A-46],Evaluation,Erysiphe graminis,A (No diseased area)
COC(=O)NCc1cc(C(C)=NOCc2ccccc2C(F)(F)F)ccc1Cl [A-99],Evaluation,Erysiphe graminis,A (No diseased area)
same,Evaluation (total diseased area of the first leaves),Septoria nodorum,B (Diseased area of less than 5%)
COC(=O)NCc1cc(C(C)=NOC(C)(C)C)ccc1Cl [A-55],Evaluation,Erysiphe graminis,A (No diseased area)
"COC(=O)NCc1cc(C(C)=NOCc2cccc(Cl)c2)ccc1Cl (single isomer, unassigned) [A-85]",Evaluation,Erysiphe graminis,A (No diseased area)
same,Evaluation (total diseased area of the first leaves),Septoria nodorum,B (Diseased area of less than 5%)
"COC(=O)NCc1cc(C(C)=NOCc2ccc(Cl)cc2)ccc1Cl (single isomer, unassigned) [A-86]",Evaluation,Erysiphe graminis,A (No diseased area)
"CON=C(C)c1cccc(CNC(=O)OC)c1 [A-40, Methyl N-[3-(1-methoxyiminoethyl)benzyl]carbamate]",Evaluation,Erysiphe graminis,A (No diseased area)
COC(=O)NCc1cc(C(C)=NOCc2ccc(C)cc2)ccc1Cl [A-92],Evaluation,Erysiphe graminis,A (No diseased area)
same,Evaluation (total diseased area of the first leaves),Septoria nodorum,B (Diseased area of less than 5%)
COC(=O)NCc1cc(C(C)=NOC(C)C)ccc1Cl [A-51],Evaluation,Erysiphe graminis,A (No diseased area)
same,Evaluation (total diseased area of the first leaves),Septoria nodorum,B (Diseased area of less than 5%)
CON=C(C)c1cccc(CON=C(C)c2ccc(Cl)c(CNC(=O)OC)c2)c1 [A-291],Evaluation (total diseased area of the first leaves),Septoria nodorum,A (No diseased area)
same,Evaluation (total diseased area of the cotyledons),Botrytis cinerea,3
COC(=O)NCc1cccc(C(C)=NOCc2ccccc2)c1 [A-38],Evaluation,Erysiphe graminis,A (No diseased area)
C#CCON=C(C)c1ccc(Cl)c(CNC(=O)OC)c1 [A-61],Evaluation,Erysiphe graminis,A (No diseased area)
same,Evaluation (total diseased area of the first leaves),Septoria nodorum,B (Diseased area of less than 5%)
C=CCON=C(c1ccccc1)c1cccc(CNC(=O)OC)c1 [A-41],Evaluation,Erysiphe graminis,B (Diseased area of less than 5%)
COC(=O)NCc1cc(C(C)=NOCc2ccccc2)ccc1C [A-113],Evaluation,Erysiphe graminis,A (No diseased area)
same,Evaluation (total diseased area of the first leaves),Septoria nodorum,A (No diseased area)
C=CCON=C(C)c1ccc(Cl)c(CNC(=O)OC)c1 [A-58],Evaluation,Erysiphe graminis,A (No diseased area)
same,Evaluation (total diseased area of the first leaves),Septoria nodorum,B (Diseased area of less than 5%)
COC(=O)NCc1cc(C(C)=NOCc2ccccc2C)ccc1Cl [A-90],Evaluation,Erysiphe graminis,A (No diseased area)
same,Evaluation (total diseased area of the first leaves),Septoria nodorum,A (No diseased area)
"COC(=O)NCc1cc(C(C)=NOCc2ccccc2)ccc1Cl (single isomer, unassigned) [A-80]",Evaluation,Erysiphe graminis,A (No diseased area)
same,Evaluation (total diseased area of the first leaves),Septoria nodorum,A (No diseased area)
COC(=O)NCc1cc(C(C)=NOCc2ccccc2F)ccc1Cl [A-81],Evaluation,Erysiphe graminis,A (No diseased area)
same,Evaluation (total diseased area of the first leaves),Septoria nodorum,B (Diseased area of less than 5%)
"COC(=O)NCc1cc(C(C)=NOCc2ccccc2Cl)ccc1Cl (single isomer, unassigned) [A-84]",Evaluation,Erysiphe graminis,A (No diseased area)
COC(=O)NCc1cc(C(C)=NOCc2cccc(C)c2)ccc1Cl [A-91],Evaluation,Erysiphe graminis,A (No diseased area)
same,Evaluation (total diseased area of the first leaves),Septoria nodorum,B (Diseased area of less than 5%)
COC(=O)NCc1cc(C(C)=NOCc2cccc(F)c2)ccc1Cl [A-82],Evaluation,Erysiphe graminis,A (No diseased area)
same,Evaluation (total diseased area of the first leaves),Septoria nodorum,B (Diseased area of less than 5%)
CCON=C(C)c1cccc(CNC(=O)OC)c1 [A-39],Evaluation,Erysiphe graminis,A (No diseased area)
"COC(=O)NCc1cc(C(C)=NO)ccc1Cl [A-45, Methyl N-[2-chloro-5-(1-hydroxyiminoethyl)benzyl]carbamate]",melting point,,124 to 127 °C
CCON=C(c1ccccc1)c1cccc(CNC(=O)OC)c1 [A-43],Evaluation,Erysiphe graminis,A (No diseased area)
